In patent US4526787A, “N-heterocyclic retinoic acid analogues” (SRI International, priority 1983, dated 1985):

Experiments:
[1] = test system: Hamster Tracheal Organ Culture; assay: Tracheal organ culture assay: reversal of keratinization; assay type: cell-based
Method: (§1) The ODC assay measures a compound's ability to prevent the induction of ODC. The tracheal organ culture assay measures a compound's ability to reverse keratinization.
The tracheal organ culture assay is carried out as follows. Tracheas are taken from hamsters that are in very early stages of vitamin A deficiency and placed in organ culture. At the time of culture, the animals are still gaining weight; the tracheal epithelium is generally low columnar or cuboidal, with only occasional patches of squamous metaplasia. Each trachea is opened from the larynx to the carina along the membranous dorsal wall and cultured in a serum-free medium (CMRL-1066; with crystalline bovine insulin, 0.1 μg/ml; hydrocortisone hemisuccinate, 0.1 μg/ml; glutamine, 2 mM; penicillin, 100 units/ml; and streptomycin,100 μg/ml, added). Cultures are gassed with 50% oxygen, 45% nitrogen, and 5% CO2. The culture dishes are rocked at 35.5-36.0 degrees to allow the tracheas contact with both gas and medium. All tracheas are grown in medium containing no retinoid for the first 3 days. At the end of 3 days, some tracheas are harvested; almost of these tracheas have significant squamous metaplasia, and approximately 60% have keratinized lesions. The remaining tracheas are then divided into different groups which are treated with either: (1) retinoid dissolved in dimethylsulfoxide (final concentration of DMSO in culture medium is never greater than 0.1%) or (2) an equivalent amount of DMSO alone. Culture medium is changed three times a week, and all of the remaining tracheas are harvested at the end of 10 days in culture. Tracheas are fixed in 10% buffered formalin and embedded in paraffin. Cross sections of five micrometers are made through the mid-portion, stained with hematoxylin and eosin, and then scored with a microscope for the presence of keratin and keratohyaline granules, both of which are found in approximately 90% of control cultures that received no retinoid for the entire 10 day culture period.

Ornithine Decarboxylase = assay: ODC assay: inhibition of induction of ornithine decarboxylase by TPA in mouse skin; assay type: in vivo, mouse (female Charles River CD-1); conditions: topical, 1 hour before TPA (17 nmol)
Method: as §1
The ODC assay is carried out as follows. Female Charles River CD-1 mice from Charles River Breeding Laboratories, Wilmington, Mass., are used (age 7 to 9 weeks). The dorsal hair of the mice is shaved 1 to 2 days before testing, and only mice showing no hair regrowth are used. […] The test compound, at one of three dose levels (1.7, 17 and 170 nmol), dissolved in 0.2 mL of acetone is applied 1 hour before the TPA treatment to the test groups; the control group is treated with acetone alone. The mice are killed by cervical dislocation five hours after TPA treatment. Determinations are done in triplicate.
The epidermis is obtained from the sacrificed animals. To obtain sufficient material, the dorsal skins from 2 to 3 mice in each treatment group are pooled. […]
The supernatant fraction remaining after centrifugation of the homogenate at 10,000×g for 30 seconds at 0° C. is used for the enzyme assay. Enzyme activity is determined using the microassay for ODC as described by Verma and Boutwell to measure the release of ^14 CO2 from DL-[1-^14 C]-ornithine (58 mCi/mmol) after incubation with the 10,000×g supernatant. […]

| Structure (SMILES) | Reversal of Keratinization in Hamster Tracheal Organ Culture, Active/Total Cultures ([1]; Conc 10^-8 M) | Reversal of Keratinization in Hamster Tracheal Organ Culture, Active/Total Cultures (%) ([1]; Conc 10^-8 M) | Reversal of Keratinization in Hamster Tracheal Organ Culture, Active/Total Cultures ([1]; Conc 10^-9 M) | Reversal of Keratinization in Hamster Tracheal Organ Culture, Active/Total Cultures (%) ([1]; Conc 10^-9 M) | Reversal of Keratinization in Hamster Tracheal Organ Culture, Active/Total Cultures ([1]; Conc 10^-10 M) | Reversal of Keratinization in Hamster Tracheal Organ Culture, Active/Total Cultures (%) ([1]; Conc 10^-10 M) | Reversal of Keratinization in Hamster Tracheal Organ Culture, Active/Total Cultures ([1]; Conc 10^-11 M) | Reversal of Keratinization in Hamster Tracheal Organ Culture, Active/Total Cultures (%) ([1]; Conc 10^-11 M) | Inhibition of Induction of Ornithine Decarboxylase by 12-O-Tetradecanoylphorbol-13-acetate in Mouse Skin, % Inhibition of Control (Ornithine Decarboxylase; Dose 1.7 nmol) [%] | Inhibition of Induction of Ornithine Decarboxylase by 12-O-Tetradecanoylphorbol-13-acetate in Mouse Skin, % Inhibition of Control (Ornithine Decarboxylase; Dose 17 nmol) [%] |
| --- | --- | --- | --- | --- | --- | --- | --- | --- | --- | --- |
| CCOC(=O)c1ccc(/C=C(C)/C=C/C2=C(C)CCCC2(C)C)cn1 [Example, (E)-1-(2-Carbethoxy-5-pyridyl)-2-methyl-4-(2,6,6-trimethyl-1-cyclohexen-1-yl)-1,3-butadiene] | 7/7 | 100 | 8/14 | 57 | 4/14 | 29 | 1/7 | 14 | 29 | 68 |
| CC1=C(/C=C/C(C)=C/C=C/C(C)=C/C(=O)O)C(C)(C)CCC1 [Retinoic Acid] |  | 100 |  | 88 |  | 52 |  |  |  |  |
